# Where two headings read alike, the source gives them in different places.
# Biological target: recombinant human GPR52 (Homo sapiens, UniProt Q9Y2T5)
# Experiment: HTRF cAMP assay, GPR52 activity (Example A)
# Format: cell-based
# Outline: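 Flp-In CHO cells stably expressing human GPR52 (20,000/well) incubated 30 min at room temperature with compound, cAMP then quantified by competitive HTRF. EC50 from nonlinear fits of cAMP-transformed data normalized to positive control; Emax is top plateau at 10 or 31.6 μM, given as % of a reference agonist's Emax.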
# [1] = average EC50 (n=1 to 15), Flp-In-CHO cells stably expressing recombinant human GPR52, cAMP HTRF, read-out: EC50 (N=)
# [2] = maximum cAMP at 10 μM or 31.6 μM test compound, as percentage of Emax of control compound 4-(3-(3-fluoro-5-(trifluoromethyl)benzyl)-5-methyl-4,5-dihydro-1H-1,2,4-triazol-1-yl)-2-methylbenzamide
# Chain of recombinant human GPR52 (Q9Y2T5 whole entry): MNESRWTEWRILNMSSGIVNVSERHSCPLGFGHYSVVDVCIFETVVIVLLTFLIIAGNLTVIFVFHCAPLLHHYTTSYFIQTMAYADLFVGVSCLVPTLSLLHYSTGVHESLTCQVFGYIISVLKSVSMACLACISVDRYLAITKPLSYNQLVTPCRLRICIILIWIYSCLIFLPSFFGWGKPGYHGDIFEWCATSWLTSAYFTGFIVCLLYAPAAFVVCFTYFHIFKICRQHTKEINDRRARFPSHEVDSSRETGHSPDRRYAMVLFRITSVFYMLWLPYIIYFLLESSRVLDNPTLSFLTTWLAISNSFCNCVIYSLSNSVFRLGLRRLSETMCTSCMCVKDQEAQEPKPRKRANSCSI
smiles,measurement,setting,value
"CCc1cc(-c2cc(Oc3cnc4c(C(F)(F)F)cccc4c3)ccn2)ccc1C(N)=O [Example 109, 2-ethyl-4-(4-((8-(trifluoromethyl)quinolin-3-yl)oxy)pyridin-2-yl)benzamide]",EC50,[1],101 to 1000 nM
same,Emax,[2],75%
"CCc1cc(-c2cc(Oc3cc(F)c4c(C)nn(C)c4c3)ccn2)ccc1C(N)=O [Example 38, 2-ethyl-4-(4-((4-fluoro-1,3-dimethyl-1H-indazol-6-yl)oxy)pyridin-2-yl)benzamide]",EC50,[1],25 to 100 nM
same,Emax,[2],104%
"Cc1cc(-c2cc(Oc3ccc4c(c3)OC(F)(F)O4)ccn2)ccc1C(N)=O [Example 89, 4-(4-((2,2-difluorobenzo[d][1,3]dioxol-5-yl)oxy)pyridin-2-yl)-2-methylbenzamide]",EC50,[1],101 to 1000 nM
same,Emax,[2],95%
"Cc1cc(-c2cccc(Oc3cnc4c(C)nn(C)c4c3)c2)ccc1C(N)=O [Example 31, 3′-((1,3-dimethyl-1H-pyrazolo[4,3-b]pyridin-6-yl)oxy)-3-methyl-[1,1′-biphenyl]-4-carboxamide]",EC50,[1],101 to 1000 nM
same,Emax,[2],88%
"NC(=O)c1ccc(-c2cc(Oc3ccc4ncccc4c3)ccn2)cc1C(F)(F)F [Example 75, 4-(4-(quinolin-6-yloxy)pyridin-2-yl)-2-(trifluoromethyl)benzamide]",EC50,[1],101 to 1000 nM
same,Emax,[2],101%
"Cc1cc(-c2cc(Oc3ccc4nn(C)cc4c3)ccn2)ccc1C(N)=O [Example 6, 2-methyl-4-(4-((2-methyl-2H-indazol-5-yl)oxy)pyridin-2-yl)benzamide]",EC50,[1],101 to 1000 nM
same,Emax,[2],110%
"CCc1cc(-c2cc(Oc3ccc4cnn(C)c4c3)ccn2)ccc1C(=O)NC [Example 59, 2-ethyl-N-methyl-4-(4-((1-methyl-1H-indazol-6-yl)oxy)pyridin-2-yl)benzamide]",EC50,[1],101 to 1000 nM
same,Emax,[2],95%
"Cc1cc(-c2cc(Oc3ccc4ncn(C)c4c3)ccn2)ccc1C(N)=O [Example 8, 2-methyl-4-(4-((1-methyl-1H-benzo[d]imidazol-6-yl)oxy)pyridin-2-yl)benzamide]",EC50,[1],1000 to 2000 nM
same,Emax,[2],68%
"CCNC(=O)c1ccc(-c2cc(Oc3ccc4cnn(C)c4c3)ccn2)cc1C [Example 63, N-ethyl-2-methyl-4-(4-((1-methyl-1H-indazol-6-yl)oxy)pyridin-2-yl)benzamide]",EC50,[1],101 to 1000 nM
same,Emax,[2],70%
"Cc1cc(-c2cc(Oc3cccc4occc34)ccn2)ccc1C(N)=O [Example 90, 4-(4-(benzofuran-4-yloxy)pyridin-2-yl)-2-methylbenzamide]",EC50,[1],1000 to 2000 nM
same,Emax,[2],107%
"Cn1ncc2ncc(Oc3ccnc(-c4ccc(C(N)=O)c(C(F)(F)F)c4)c3)cc21 [Example 33, 4-(4-((1-methyl-1H-pyrazolo[4,3-b]pyridin-6-yl)oxy)pyridin-2-yl)-2-(trifluoromethyl)benzamide]",EC50,[1],101 to 1000 nM
same,Emax,[2],90%
"CCc1cc(-c2cc(Oc3ccc4c(F)nn(C)c4c3)ccn2)ccc1C(N)=O [Example 132, 2-ethyl-4-(4-((3-fluoro-1-methyl-1H-indazol-6-yl)oxy)pyridin-2-yl)benzamide]",EC50,[1],25 to 100 nM
same,Emax,[2],110%
"Cc1nn(C)c2cc(Oc3ccnc(-c4ccc(C(N)=O)c(Cl)c4)c3)ccc12 [Example 40, 2-chloro-4-(4-((1,3-dimethyl-1H-indazol-6-yl)oxy)pyridin-2-yl)benzamide]",EC50,[1],25 to 100 nM
same,Emax,[2],92%
"CCc1cc(-c2cc(Oc3cnc4c(C)nn(C)c4c3)ccn2)cc(F)c1C(N)=O [Example 34, 4-(4-((1,3-dimethyl-1H-pyrazolo[4,3-b]pyridin-6-yl)oxy)pyridin-2-yl)-2-ethyl-6-fluorobenzamide]",EC50,[1],1000 to 2000 nM
same,Emax,[2],77%
"Cc1cc(-c2cc(Oc3ccc4c(C)nn(C)c4c3)ccn2)ccc1C(N)=O [Example 4, 4-(4-((1,3-dimethyl-1H-indazol-6-yl)oxy)pyridin-2-yl)-2-methylbenzamide]",EC50,"Flp-In-CHO cells expressing human GPR52, read-out: average EC50",83 nM
same,EC50,[1],25 to 100 nM
same,Emax (%),[2],103%
same,Emax,percentage of Emax of control compound,106%
"Cc1cc(-c2cc(Oc3ccc4c(c3)CCC4=O)ccn2)ccc1C(N)=O [Example 84, 2-methyl-4-(4-((1-oxo-2,3-dihydro-1H-inden-5-yl)oxy)pyridin-2-yl)benzamide]",EC50,[1],101 to 1000 nM
same,Emax,[2],123%
"CCc1cc(-c2cc(Oc3ccc4ncc(C)cc4c3)ccn2)ccc1C(N)=O [Example 107, 2-ethyl-4-(4-((3-methylquinolin-6-yl)oxy)pyridin-2-yl)benzamide]",EC50,[1],25 to 100 nM
same,Emax,[2],146%
"Cc1cc(-c2cc(Oc3cnc4c(F)c(F)ccc4c3)ccn2)ccc1C(N)=O [Example 116, 4-(4-((7,8-difluoroquinolin-3-yl)oxy)pyridin-2-yl)-2-methylbenzamide]",EC50,[1],25 to 100 nM
same,Emax,[2],62%
"CCc1cc(-c2cc(Oc3cc(F)c4cnn(C)c4c3)cc(N)n2)ccc1C(N)=O [Example 20, 4-(6-amino-4-((4-fluoro-1-methyl-1H-indazol-6-yl)oxy)pyridin-2-yl)-2-ethylbenzamide]",EC50,[1],101 to 1000 nM
same,Emax,[2],111%
"Cc1cc(-c2cc(Oc3ccc4cccnc4c3)ccn2)ccc1C(N)=O [Example 88, 2-methyl-4-(4-(quinolin-7-yloxy)pyridin-2-yl)benzamide]",EC50,[1],101 to 1000 nM
same,Emax,[2],67%
"CCc1cc(-c2cc(Oc3ccc4c(C)nn(C(F)(F)F)c4c3)ccn2)ccc1C(N)=O [Example 134, 2-ethyl-4-(4-((3-methyl-1-(trifluoromethyl)-1H-indazol-6-yl)oxy)pyridin-2-yl)benzamide]",EC50,[1],101 to 1000 nM
same,Emax,[2],117%
"Cc1cc(-c2cc(Oc3cc(F)c4ncc(F)cc4c3)ccn2)ccc1C(N)=O [Example 119, 4-(4-((3,8-difluoroquinolin-6-yl)oxy)pyridin-2-yl)-2-methylbenzamide]",EC50,[1],101 to 1000 nM
same,Emax,[2],120%
"CNC(=O)c1ccc(-c2cc(Oc3ccc4cnn(C)c4c3)ccn2)cc1C [Example 62, N,2-dimethyl-4-(4-((1-methyl-1H-indazol-6-yl)oxy)pyridin-2-yl)benzamide]",EC50,[1],101 to 1000 nM
same,Emax,[2],84%
"CCc1cc(-c2cc(Oc3cnc4c(Cl)cccc4c3)ccn2)ccc1C(N)=O [Example 112, 4-(4-((8-chloroquinolin-3-yl)oxy)pyridin-2-yl)-2-ethylbenzamide]",EC50,[1],101 to 1000 nM
same,Emax,[2],100%
"CCc1cc(-c2cc(Oc3cnc4c(c3)C=C(F)CC4)ccn2)ccc1C(N)=O [Example 122, 2-ethyl-4-(4-((6-fluoro-7,8-dihydroquinolin-3-yl)oxy)pyridin-2-yl)benzamide]",EC50,[1],101 to 1000 nM
same,Emax,[2],121%
"Cc1nn(C)c2cc(Oc3ccnc(-c4ccc(C(N)=O)c(C(F)(F)F)c4)c3)cnc12 [Example 30, 4-(4-((1,3-dimethyl-1H-pyrazolo[4,3-b]pyridin-6-yl)oxy)pyridin-2-yl)-2-(trifluoromethyl)benzamide]",EC50,[1],1000 to 2000 nM
same,Emax,[2],87%
"CCc1cc(-c2cc(Oc3cc(F)c4cnn(C)c4c3)cc3nccn23)ccc1C(N)=O [Example 72, 2-ethyl-4-(7-((4-fluoro-1-methyl-1H-indazol-6-yl)oxy)imidazo[1,2-a]pyridin-5-yl)benzamide]",EC50,[1],25 to 100 nM
same,Emax,[2],69%
"Cc1cc(-c2cc(Oc3ccn4nccc4c3)ccn2)ccc1C(N)=O [Example 13, 2-methyl-4-(4-(pyrazolo[1,5-a]pyridin-5-yloxy)pyridin-2-yl)benzamide]",EC50,[1],101 to 1000 nM
same,Emax,[2],97%
"CCc1cc(-c2cc(Oc3cnc4c(F)c(F)ccc4c3)ccn2)ccc1C(N)=O [Example 115, 4-(4-((7,8-difluoroquinolin-3-yl)oxy)pyridin-2-yl)-2-ethylbenzamide]",EC50,[1],101 to 1000 nM
same,Emax,[2],100%
"CCc1cc(-c2cc(Oc3cnc4c(C(F)(F)F)nn(C)c4c3)ccn2)ccc1C(N)=O [Example 29, 2-ethyl-4-(4-((1-methyl-3-(trifluoromethyl)-1H-pyrazolo[4,3-b]pyridin-6-yl)oxy)pyridin-2-yl)benzamide]",EC50,[1],101 to 1000 nM
same,Emax,[2],84%
"CCc1cc(-c2cc(Oc3cnc4c(C)nn(C)c4c3)cc(N)n2)ccc1C(N)=O [Example 16, 4-(6-amino-4-((1,3-dimethyl-1H-pyrazolo[4,3-b]pyridin-6-yl)oxy)pyridin-2-yl)-2-ethylbenzamide]",EC50,[1],101 to 1000 nM
same,Emax,[2],107%
"CCc1cc(-c2cc(Oc3cc(C)c4cnn(C)c4c3)ccn2)ccc1C(N)=O [Example 46, 4-(4-((1,4-dimethyl-1H-indazol-6-yl)oxy)pyridin-2-yl)-2-ethylbenzamide]",EC50,[1],101 to 1000 nM
same,Emax,[2],63%

# — patent US20260167615A1, “COMPOUNDS AND COMPOSITIONS AS GPR52 MODULATORS” (Neurocrine Biosciences, Inc., priority 2022, published 2026)
